Measurements as given in US8680094B2, “1, 4-benzoxazine compounds and derivatives thereof as therapeutic drugs for the treatment of neurodegenerative conditions” (Board of Regents, The University of Texas System, priority 2008, dated 2014).

Legend:
HT-22 cells = test: HCA-induced toxicity in HT-22 neuroblastoma cells; type: cell-based, mouse
Procedure: FIGS. 6A and 6B show the effects of HSB-13 on HT-22 cells and the quantification of cell death. […] HT-22 cells were treated with no additives (Un), 1.5 mM HCA, or 1.5 mM HCA plus 25 μM HSB-13, 25 μM ASK-2a, and 25 μM HSB-22. In FIG. 6A, the appearance of the cultures at 24 h after treatment was visualized by phase-contrast microscopy (Phase). […] Viability was expressed as % of untreated cultures (control);
HT-22 cells were treated with no additives (Control), 2 mM HCA, or 2 mM HCA+25 μM HSB-13. The appearance of the cultures at 24 h after treatment is shown.
The mouse HT-22 neuroblastoma cell line was purchased from ATCC (Manassas, Va., USA) and cultured in Dulbecco's modified Eagle's medium (DMEM) with 4.5 g/L glucose (without sodium pyruvate) supplemented with 10% FBS, 100 units/ml penicillin and 100 μg/ml streptomycin. Cultures were plated at ˜30% confluence for HCA treatment. HCA was made as 150 mM stock solution adjusted to pH 7.5 and used at a final concentration of 1.5 mM.
Treatment of the mouse neuroblastoma HT-22 cell line with homocysteic acid (HCA) induces apoptosis through glutathione depletion and oxidative stress (Murphy et al. 1990; Ratan et al. 1994a, 1994b). The inventors studied whether HSB-13, HSB-22, and ASK-2a were protective in this paradigm of oxidative stress-induced neuronal death. HSB-13 prevents HCA-induced cell death. […] Thus, HSB-13, but not ASK-2a and HSB-22, is protective against oxidative stress-induced neuronal death.
Analysis in cultured cerebellar granule neurons identified HSB-13 as one with strong neuroprotective efficacy. We therefore selected HSB-13 to examine whether its protective effects extended to other neuronal types and apoptotic stimuli. Treatment of the hippocampally-derived neuroblastoma cell line, HT-22, with homocysteic acid (HCA) causes oxidative stress due to glutathione depletion leading to apoptosis (Murphy et al., 1990; Ratan et al., 1994a and 1994b).

ATF-3 = test: Western blot of ATF-3 expression in LK-treated cerebellar granule neurons; type: cell-based, rat; conditions: 25 μM, 3 h
Procedure: Cerebellar neuron cultures were treated for 3 h with HK, LK, or LK medium containing 25 μM HSB-13, 25 μM ASK-2a, or 25 μM HSB-22. Whole cell lysates were then prepared and subjected to Western blot analysis using antibodies against c-jun and ATF-3.
(§1) The culture medium was removed and the cells were washed twice with ice-cold phosphate-buffered saline (PBS) and lysed in lysis buffer [1% Triton, 20 mM Tris-HCl (pH 7.5), 150 mM NaCl, 1 mM Na2EDTA, 1 mM EGTA, 2.5 mM sodium pyrophosphate, 1 mM beta-glycerophosphate, 1 mM Na3VO4, 1 μg/mL leupeptin and 1 protease inhibitor mixture]. Protein concentrations were measured and normalized using Bradford protein assay reagent (Bio-Rad, Hercules, Calif., USA). Following normalization, 40 μg of protein was subjected to Western blotting. Immunoreactivity was examined by enhanced chemiluminescence (Amersham Bioscience, Piscataway, N.J., USA).
C-jun expression is induced in a variety of tissue culture and in vivo paradigms of neuronal apoptosis (Schenkel et al., 2004). […] Treatment with HSB-13 inhibited c-jun expression even lower that that seen in HK-treated cultures. […] The suppression of ATF-3 expression using siRNA inhibits LK-mediated death of cerebellar granule neurons has been previously been described by the present inventors (Chen et al., 2008a). […] As observed with c-jun, the suppression was most robust with HSB-13. As a result these compositions can inhibit the activity of c-jun and ATF-3, which in turn play a role in treating cancer and oncoproteins like c-jun.

phospho-MEK = test: Western blot of signaling proteins in LK-treated cerebellar granule neurons: phospho-MEK; type: cell-based, rat; conditions: LK medium with compound, 3 h
Procedure: Cultures of cerebellar granule neurons were switched to HK medium, LK medium, or LK medium containing of HSB-13, HSB-22, or ASK-2a for 3 h. Total cell lysates were prepared and analyzed by Western blotting using antibodies against phospho-Akt (Ser473), phospho-MEK, phospho-ERK, and phospho-GSK3β.
as §1
Activation of MEK, ERK and Akt requires their phosphorylation, which can be detected using phospho-specific antibodies. As previously reported by the inventors and others (Chin et al., 2004; Johnson et al., 2005; Majdzadeh et al., 2008), MEK and ERK phosphorylation decreases following LK treatment of cerebellar granule neurons. This decrease is not prevented by HSB-13, HSB-22, or ASK-2a (FIG. 4). […] This is also not affected by treatment with ASK-2a or HSB-22 (FIG. 4).

[1] = any of the three doses examined (data not shown)

Row | SMILES | protection against HCA-induced cell death (HT-22 cells; [1]) | LK-mediated increase in ATF-3 (ATF-3) | LK-induced decrease of MEK phosphorylation (phospho-MEK) | protection against HCA-induced cell death (HT-22 cells; 1.5 mM HCA, 5 μM compound, 24 h) | protection against HCA-induced cell death (HT-22 cells; 1.5 mM HCA, 25 μM compound, 24 h) | protection against HCA-induced cell death (HT-22 cells; 2 mM HCA, 5 uM compound) | HCA-induced cell death (HT-22 cells; 2 mM HCA, 25 uM compound, 24 h (FIG. 9))
1 | O=C1Nc2cc(Cl)ccc2O/C1=C\c1cc(Br)c(O)c(Br)c1 [HSB-22] | failed to protect | inhibited | not prevented |  |  |  | 
2 | O=C1Nc2ccccc2OC1=Cc1cc(Br)c(O)c(Br)c1 [ASK-2a] | failed to protect | inhibited | not prevented |  |  |  | 
3 | Nc1ccc2c(c1)NC(=O)/C(=C/c1cc(Br)c(O)c(Br)c1)O2 [HSB-13, (Z)-6-amino-2-(3,′5′-dibromo-4′-hydrozybenzylidene)-2H-benzo[b][1,4]oxazin-3(4H)-one] |  | inhibited | not prevented | robust protection | highest protection | not protective | prevented
